From US7205305B2, “Inhibitors of p38” (Vertex Pharmaceuticals Incorporated, priority 1996, dated 2007)

Columns and labels:
[1] = test system: LPS induced PGHS-2 expression in PBMCs; test: Inhibition of LPS-induced prostaglandin endoperoxide synthase-2 (PGHS-2, or COX-2) induction in PBMCs; type: cell-based, human; conditions: PBMCs, 0.2, 2.0 and 20 μM compound, LPS 4 ng/ml, overnight, anti-COX-2 immunoblot
Description: Human peripheral mononuclear cells (PBMCs) were isolated from fresh human blood buffy coats by centrifugation in a Vacutainer CPT (Becton & Dickinson). We seeded 15×10^6 cells in a 6-well tissue culture dish containing RPMI 1640 supplemented with 10% fetal bovine serum, 50 U/ml penicillin, 50 μg/ml streptomycin, and 2 mM L-glutamine. Compound 6 (above) was added at 0.2, 2.0 and 20 μM final concentrations in DMSO. Then we added LPS at a final concentration of 4 ng/ml to induce enzyme expression. The final culture volume was 10 ml/well.
After overnight incubation at 37° C., 5% CO2, the cells were harvested by scraping and subsequent centrifugation, then the supernatant was removed, and the cells were washed twice in ice-cold DPBS (Dulbecco's phosphate buffered saline, BioWhittaker). The cells were lysed on ice for 10 min in 50 μl cold lysis buffer (20 mM Tris-HCl, pH 7.2, 150 mM NaCl, 1% Triton-X-100, 1% deoxycholic acid, 0.1% SDS, 1 mM EDTA, 2% aprotinin (Sigma), 10 μg/ml pepstatin, 10 μg/ml leupeptin, 2 mM PMSF, 1 mM benzamidine, 1 mM DTT) containing 1 μl Benzonase (DNAse from Merck). The protein concentration of each sample was determined using the BCA assay (Pierce) and bovine serum albumin as a standard. Then the protein concentration of each sample was adjusted to 1 mg/ml with cold lysis buffer. […]

[2] = test system: IL-6 production in IL-1-stimulated PBMCs; test: Inhibition of IL-6 production in IL-1-stimulated PBMCs; type: cell-based; conditions: Homo sapiens, PBMC; IL-1b-stimulated PBMCs, ELISA, overnight incubation
Description: (§1) This assay was carried out on PBMCs exactly the same as above except that 50 μl of an IL-1b working stock solution (2 ng/ml in cell culture medium) was added to the assay instead of the (LPS) working stock solution.
(§2) Cell culture supernatants were harvested as described above and analyzed by ELISA for levels of IL-6 (Endogen, #EH2-IL6) and IL-8 (Endogen, #EH2-IL8) according to the instructions of the manufacturer. The ELISA data were used to generate dose-response curves from which IC50 values were derived.

[3] = test system: TNF production in LPS-stimulated PBMCs; test: Inhibition of TNF production in LPS-stimulated PBMCs ("cell"); type: cell-based, human; conditions: Homo sapiens, PBMC
Method in brief: (§3)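 Cytokine levels (IL-1β, TNF-α) in culture supernatants quantified by ELISA, with IC50 taken from dose-response curves. Fresh human PBMCs in RPMI1640 with 10% FBS received serially diluted compound plus LPS (4 ng/ml final) and were cultured 12–15 h at 37 °C, 5% CO2.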

[4] = test system: IL-8 production in IL-1-stimulated PBMCs; test: Inhibition of IL-8 production in IL-1-stimulated PBMCs; type: cell-based; conditions: Homo sapiens, PBMC; IL-1b-stimulated PBMCs, ELISA, overnight incubation
Description: as §1, §2

[5] = biological target: T1, activated p38 (Homo sapiens, UniProt Q16539); test: Inhibition of phosphorylation of EGF receptor peptide ("kinase"); type: biochemical; conditions: inhibition of phosphorylation of EGF receptor peptide by activated p38
Method in brief: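 Activated p38 was preincubated with inhibitor for 15 min at room temperature in 100 mM HEPES pH 7.6, 10 mM MgCl2, 25 mM β-glycerophosphate, 10% glycerol, 5% DMSO final. Reaction used 200 μM EGF receptor peptide and 100 μM ATP for 30 min at 30° C. TFA-quenched phosphopeptide was quantified by reverse-phase HPLC.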

[6] = biological target: T1, activated p38; test: Inhibition of ATPase activity; type: biochemical; conditions: ATPase activity of activated p38 (60 nM), 30° C., 30 minutes
Description: This assay was carried out in the presence of 10 mM MgCl2, 25 mM β-glycerophosphate, 10% glycerol and 100 mM HEPES buffer at pH 7.6. For a typical Ki determination, the Km for ATP in the ATPase activity of activated p38 reaction was determined in the absence of inhibitor and in the presence of two concentrations of inhibitor. A stock solution was prepared containing all of the above components and activated p38 (60 nM). The stock solution was aliquotted into vials. […] The reaction was initiated by adding various concentrations of ATP and then incubated at 30° C. After 30 minutes, the reactions were quenched with 50 μl of EDTA (0.1 M, final concentration), pH 8.0. The product of p38 ATPase activity, ADP, was quantified by HPLC analysis.
Separation of ADP from ATP was achieved on a reversed phase column (Supelcosil, LC-18, 3 μm, part no. 5–8985) using a binary solvent gradient of following composition: Solvent A—0.1 M phosphate buffer containing 8 mM tetrabutylammonium hydrogen sulfate (Sigma Chemical Co., catalogue no. T-7158), Solvent B—Solvent A with 30% methanol.
Ki was determined from the rate data as a function of inhibitor and ATP concentrations.

[7] = test system: IL-1 production in LPS-stimulated PBMCs; test: Inhibition of IL-1 production in LPS-stimulated PBMCs ("cell"); type: cell-based, human; conditions: Homo sapiens, PBMC
Method in brief: as §3

T1 sequence (Q16539 whole entry): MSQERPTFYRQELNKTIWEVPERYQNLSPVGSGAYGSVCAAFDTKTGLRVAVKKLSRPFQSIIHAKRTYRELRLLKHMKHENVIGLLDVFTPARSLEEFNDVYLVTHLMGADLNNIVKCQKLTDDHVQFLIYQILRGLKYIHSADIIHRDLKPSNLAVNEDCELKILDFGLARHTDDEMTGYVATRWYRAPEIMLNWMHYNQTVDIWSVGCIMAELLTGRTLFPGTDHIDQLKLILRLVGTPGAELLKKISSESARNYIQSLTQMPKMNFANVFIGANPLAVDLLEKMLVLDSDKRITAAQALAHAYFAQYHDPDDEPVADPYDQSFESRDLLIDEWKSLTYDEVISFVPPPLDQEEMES

## O=c1ncn2nc(Sc3ccccc3)ccc2c1-c1c(Cl)cccc1Cl [Compound 6]
[1]
  LPS induced PGHS-2 expression: inhibits LPS induced PGHS-2 expression in PBMCs
[2]
  IC50: 600 nM
[3]
  IC50: ≥ 500 nM
[4]
  IC50: 850 nM
[5]
  IC50: 100 to 1000 nM
[6]
  Ki: 400 nM
[7]
  IC50: 100 to 500 nM
